The results in this text go back to US20070231874A1, “Crystal of glucokinase protein, and method for drug design using the crystal” (priority 2002, published 2007).

The target of the assay is T1, glucokinase (Homo sapiens, UniProt P35557).
T1 sequence (P35557 1-466 isoform P35557-2): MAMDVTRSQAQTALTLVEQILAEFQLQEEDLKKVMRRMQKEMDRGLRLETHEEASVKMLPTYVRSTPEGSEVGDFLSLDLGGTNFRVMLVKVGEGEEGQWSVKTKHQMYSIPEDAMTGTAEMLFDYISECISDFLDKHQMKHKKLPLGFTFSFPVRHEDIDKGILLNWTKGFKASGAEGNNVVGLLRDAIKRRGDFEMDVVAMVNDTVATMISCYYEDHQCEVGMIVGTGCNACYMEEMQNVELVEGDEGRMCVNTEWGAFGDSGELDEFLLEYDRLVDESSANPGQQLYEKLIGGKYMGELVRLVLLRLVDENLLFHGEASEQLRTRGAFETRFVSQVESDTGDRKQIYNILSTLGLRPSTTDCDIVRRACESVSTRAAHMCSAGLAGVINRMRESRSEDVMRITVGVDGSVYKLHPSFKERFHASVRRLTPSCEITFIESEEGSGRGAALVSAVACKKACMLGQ
The assay is described as follows: glucokinase activity assay of compounds found by pharmacophore screening (activation relative to control). Conditions: glucose 2.5 M, ligand 10 μM; activity of glucokinase is 100% in the case of control. It counts as biochemical. An excerpt:
Library compounds were screened using, as research conditions, pharmacophore of a hydrogen bond acceptor and hydrogen bond donor generated respectively from NH and CO of a main chain of Arg63, hydrophobic pharmacophore formed in a space corresponding to a phenyl group of an aniline part of a ligand forming a complex, and the protein surface made based on the structure of a protein, by using a software UNITY (manufactured by Tripos), and the following compound 4 and compound 5 were obtained and assayed, to confirm activities of 780% and 560%. An activity of 780% means that when the activity of glucokinase is 100% in the case of control, the activity is enhanced up to 780% by these compound (using glucose 2.5 M, and ligand 10 μM). [drawing 15]

Each structure is given as a SMILES string.

In the case of `Nc1ccc(Oc2ccccc2)cc1C(=O)Nc1nccs1` [compound 4], the “activity of glucokinase (control = 100%)” value turned out to be 780%.

Take `CCOC(=O)c1csc(NC(=O)c2cc(Sc3ccncc3)ccc2N)n1` [compound 5]: the “activity of glucokinase (control = 100%)” value turned out to be 560%.
